The numbers were not newly measured in patent US20190365664A1, “CARYOPHYLLENE FORMULATIONS, APPARATUSES, AND METHODS” (Biotech Institute, LLC, priority 2016, published 2019), which cites them from elsewhere.

Structures are written as SMILES.

The conditions of this data set: other studies (National Geographic News, Jun. 24, 2008).

`C=C1CC/C=C(\C)CC[C@@H]2[C@@H]1CC2(C)C` [BCP, 4,11,11-Trimethyl-8-methylenebicyclo[7.2.0]undec-4-ene]: the psychoactive effects entry was “does not have psychoactive effects”.
